Legend:
[1] = molecular target: HPK1 (Homo sapiens, UniProt Q92918); experiment: HPK1 Biochemical Assay (ADP-Glo luminescence; low ATP 10 μM or high ATP 200 μM); conditions: 2 nM HPK1, 10 μM ATP; read-out: Biochemical Potency (low ATP)
[2] = test system: p-SLP-76 (Ser376) in Jurkat cells; experiment: pSLP76 Cellular Assay (AlphaLISA SureFire Ultra p-SLP-76 (Ser376), anti-CD3 activated Jurkat cells); type: cell-based; conditions: Homo sapiens; Jurkat cells, anti-CD3 stimulation, pSLP76; read-out: Cellular Potency
Description: pSLP76 cellular assay was performed using Jurkat cells and the AlphaLISA SureFire Ultra p-SLP-76 (Ser376) Assay Kit (PerkinElmer). Dose-response assays were performed in Greiner® Low Volume 384-well assay plates containing 200 nL of 22 serial 2-fold compound dilutions using Bravo and Echo. Jurkat cells were grown in RPMI-1640 supplemented with 10% FBS and PSG. The day prior to the assay, the cells were collected, and serum starved overnight in Opti-MEM. The day of the assay, the cells were collected and resuspended in HBSS. 100,000 cells/well were added to the compound plates and after a short spin, the plates were incubated at 37° C. for 1 h. The cells were activated by adding 10 μL of 0.025 mg/ml anti-CD3. Plates were then incubated at 37° C. for 45 min. Stimulation was terminated by adding […], followed by a brief centrifugation and 60 min of shaking at 300 rpm. Cell lysates (10 μL) were transferred to 384-well White Opti-plates and the samples were processed according to the manufacturer's directions. The fluorescence signal from pSLP76 was measured at 570 nm using Envision plate reader. IC50 values were determined by fitting the data to a standard 4-parameter logistic equation. The results are summarized in the Cellular Potency columns in Tables 4 and 5 below (Cellular Potency).

Chain of HPK1 (Q92918 whole entry, species assumed): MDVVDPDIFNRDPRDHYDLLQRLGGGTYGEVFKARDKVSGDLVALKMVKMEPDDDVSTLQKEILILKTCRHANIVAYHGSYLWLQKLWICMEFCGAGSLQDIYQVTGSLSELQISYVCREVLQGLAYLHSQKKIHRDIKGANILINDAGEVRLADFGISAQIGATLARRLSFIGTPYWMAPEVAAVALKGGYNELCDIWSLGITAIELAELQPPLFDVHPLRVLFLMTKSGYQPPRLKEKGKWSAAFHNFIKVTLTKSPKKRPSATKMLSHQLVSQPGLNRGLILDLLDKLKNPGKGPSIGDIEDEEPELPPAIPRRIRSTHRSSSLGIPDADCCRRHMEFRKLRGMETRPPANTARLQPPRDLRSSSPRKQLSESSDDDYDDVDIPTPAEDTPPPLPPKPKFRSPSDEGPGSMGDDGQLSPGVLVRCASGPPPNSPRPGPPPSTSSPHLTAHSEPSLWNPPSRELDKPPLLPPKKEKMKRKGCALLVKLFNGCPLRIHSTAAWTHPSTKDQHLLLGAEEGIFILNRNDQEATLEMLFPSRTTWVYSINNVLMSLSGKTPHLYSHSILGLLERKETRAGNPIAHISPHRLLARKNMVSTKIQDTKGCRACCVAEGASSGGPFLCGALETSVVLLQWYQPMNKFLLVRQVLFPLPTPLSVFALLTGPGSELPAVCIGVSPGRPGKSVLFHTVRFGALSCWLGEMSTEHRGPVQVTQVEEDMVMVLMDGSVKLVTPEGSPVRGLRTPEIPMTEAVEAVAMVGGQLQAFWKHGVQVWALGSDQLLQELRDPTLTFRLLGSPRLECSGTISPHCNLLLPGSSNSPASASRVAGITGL

Row | Compound | IC50 [1] [nM] | IC50 [2] [nM]
1 | Cc1cccc(F)c1-c1nc2cc(Nc3ccc(N4CCOCC4)c(CN4CCCS4(=O)=O)n3)ncc2s1 [Example 30, 2-[(6-{[2-(2-Fluoro-6-methylphenyl)-[1,3]thiazolo[5,4-c]pyridin-6-yl]amino}-3-(morpholin-4-yl)pyridin-2-yl)methyl]-1λ^6,2-thiazolidine-1,1-dione] | < 100 | 100 to 1000
2 | CN(Cc1nc(Nc2cc3nc(-c4c(F)cccc4F)sc3cn2)ccc1N1CCOCC1)S(C)(=O)=O [Example 31, N-[(6-{[2-(2,6-Difluorophenyl)-[1,3]thiazolo[5,4-c]pyridin-6-yl]amino}-3-(morpholin-4-yl)pyridin-2-yl)methyl]-N-methylmethanesulfonamide] | 1000 to 5000 | > 5000
3 | Cc1ccc(Nc2cc3nc(-c4cnn(CCC(N)=O)c4)sc3cn2)nc1CN1CCCC1 [Example 37, 3-{4-[6-({5-Methyl-6-[(pyrrolidin-1-yl)methyl]pyridin-2-yl}amino)-[1,3]thiazolo[5,4-c]pyridin-2-yl]-1H-pyrazol-1-yl}propanamide] | < 100 | 100 to 1000
4 | Cc1ccc(Nc2cc3nc(-c4ncccc4C)sc3cn2)nc1CN1CCCC1 [Example 41, 5-Methyl-N-[2-(3-methylpyridin-2-yl)-[1,3]thiazolo[5,4-c]pyridin-6-yl]-6-[(pyrrolidin-1-yl)methyl]pyridin-2-amine] | < 100 | 1000 to 5000
5 | Cc1ccc(Nc2cc3nc(-c4ncccc4C)sc3cn2)nc1CN1CC[C@H](F)C1 [Example 43, 6-{[(3S)-3-Fluoropyrrolidin-1-yl]methyl}-5-methyl-N-[2-(3-methylpyridin-2-yl)-[1,3]thiazolo[5,4-c]pyridin-6-yl]pyridin-2-amine] | < 100 | > 5000
6 | Cc1ccc(Nc2cc3nc(-c4ncccc4C)sc3cn2)nc1CN1CCC[C@H]1C [Example 44, 5-Methyl-N-[2-(3-methylpyridin-2-yl)-[1,3]thiazolo[5,4-c]pyridin-6-yl]-6-{[(2R)-2-methylpyrrolidin-1-yl]methyl}pyridin-2-amine] | < 100 | > 5000
7 | Cc1ccc(Nc2cc3nc(-c4c(F)cccc4F)sc3cn2)nc1CN(C)C [Example 46, N-[2-(2,6-Difluorophenyl)-[1,3]thiazolo[5,4-c]pyridin-6-yl]-6-[(dimethylamino)methyl]-5-methylpyridin-2-amine] | < 100 | 1000 to 5000
8 | Cc1ccc(Nc2cc3nc(-c4ncccc4C)sc3cn2)nc1CN1CCC[C@@H]1CO [Example 49, [(2R)-1-[(3-Methyl-6-{[2-(3-methylpyridin-2-yl)-[1,3]thiazolo[5,4-c]pyridin-6-yl]amino}pyridin-2-yl)methyl]pyrrolidin-2-yl]methanol] | < 100 | 1000 to 5000
9 | Cc1ccc(Nc2cc3nc(-c4ncccc4C)sc3cn2)nc1CN1CC[C@@H](C#N)C1 [Example 54, 6 (3R)-1-[(3-Methyl-6-{[2-(3-methylpyridin-2-yl)-[1,3]thiazolo[5,4-c]pyridin-6-yl]amino}pyridin-2-yl)methyl]pyrrolidine-3-carbonitrile] | < 100 | > 5000
10 | Cc1ccc(Nc2cc3nc(-c4ccnnc4)sc3cn2)nc1CN1CCCC1 [Example 57, 5-Methyl-N-[2-(pyridazin-4-yl)-[1,3]thiazolo[5,4-c]pyridin-6-yl]-6-[(pyrrolidin-1-yl)methyl]pyridin-2-amine] | < 100 | 1000 to 5000
11 | Cc1cccnc1-c1nc2cc(Nc3ccc(Cl)c(CN4CCCC4)n3)ncc2s1 [Example 60] | < 100 | > 5000
12 | Cc1cccnc1-c1nc2cc(Nc3ccc(N4CCOCC4)c(CN4CCCC4)n3)ncc2s1 [Example 63, N-[2-(3-Methylpyridin-2-yl)-[1,3]thiazolo[5,4-c]pyridin-6-yl]-5-(morpholin-4-yl)-6-[(pyrrolidin-1-yl)methyl]pyridin-2-amine] | < 100 | 100 to 1000
13 | Cc1cccnc1-c1nc2cc(Nc3ccc(C)c(N4C[C@@H](N)C[C@H]4CO)n3)ncc2s1 [Example 65, [(2S,4S)-4-Amino-1-(3-methyl-6-{[2-(3-methylpyridin-2-yl)-[1,3]thiazolo[5,4-c]pyridin-6-yl]amino}pyridin-2-yl)pyrrolidin-2-yl]methanol] | < 100 | 100 to 1000
14 | Cc1cccnc1-c1nc2cc(Nc3cccc(N4C[C@@H](N)C[C@H]4CO)n3)ncc2s1 [Example 66, [(2S,4S)-4-Amino-1-(6-{[2-(3-methylpyridin-2-yl)-[1,3]thiazolo[5,4-c]pyridin-6-yl]amino}pyridin-2-yl)pyrrolidin-2-yl]methanol] | < 100 | 1000 to 5000
15 | Cc1cccnc1-c1nc2cc(Nc3ccc(C)c(N4C[C@H](N)C[C@H]4CO)n3)ncc2s1 [Example 69, [(2S,4R)-4-Amino-1-(3-methyl-6-{[2-(3-methylpyridin-2-yl)-[1,3]thiazolo[5,4-c]pyridin-6-yl]amino}pyridin-2-yl)pyrrolidin-2-yl]methanol] | < 100 | > 5000

Other lines, results leading:

Row | IC50 [1] [nM] | IC50 [2] [nM] | Compound
16 | < 100 | 100 to 1000 | Cc1cccnc1-c1nc2cc(Nc3cccc(N4C[C@H](N)C[C@H]4CO)n3)ncc2s1 [Example 70, [(2S,4R)-4-Amino-1-(6-{[2-(3-methylpyridin-2-yl)-[1,3]thiazolo[5,4-c]pyridin-6-yl]amino}pyridin-2-yl)pyrrolidin-2-yl]methanol]
17 | < 100 | 1000 to 5000 | Cc1cccnc1-c1nc2cc(Nc3ccc(C)c(N4CCC[C@H](N)C4)n3)ncc2s1 [Example 71, 6-[(3S)-3-Aminopiperidin-1-yl]-5-methyl-N-[2-(3-methylpyridin-2-yl)-[1,3]thiazolo[5,4-c]pyridin-6-yl]pyridin-2-amine]
18 | < 100 | > 5000 | Cc1cccnc1-c1nc2cc(Nc3ccc(C)c(N4CC[C@@H](N)C4)n3)ncc2s1 [Example 74, 6-[(3R)-3-Aminopyrrolidin-1-yl]-5-methyl-N-[2-(3-methylpyridin-2-yl)-[1,3]thiazolo[5,4-c]pyridin-6-yl]pyridin-2-amine]
19 | < 100 | 1000 to 5000 | Cc1cc(NCc2nccn2C)nc(Nc2cc3nc(-c4ccnc(C)c4)sc3cn2)c1 [Example 76, 4-Methyl-N2-[(1-methyl-1H-imidazol-2-yl)methyl]-N6-[2-(2-methylpyridin-4-yl)-[1,3]thiazolo[5,4-c]pyridin-6-yl]pyridine-2,6-diamine]
20 | < 100 | 100 to 1000 | Cc1cccnc1-c1nc2cc(Nc3cccc(N4C[C@@H]5C[C@H]4CN5)n3)ncc2s1 [Example 78, 6-[(1S,4S)-2,5-Diazabicyclo[2.2.1]heptan-2-yl]-N-[2-(3-methylpyridin-2-yl)-[1,3]thiazolo[5,4-c]pyridin-6-yl]pyridin-2-amine]
21 | < 100 | 1000 to 5000 | COc1cccc(F)c1-c1nc2cc(Nc3cccc(N4CC5CCC4CN5C)n3)ncc2s1 (stereo not drawn) [Example 79, N-[2-(2-Fluoro-6-methoxyphenyl)-[1,3]thiazolo[5,4-c]pyridin-6-yl]-6-{5-methyl-2,5-diazabicyclo[2.2.2]octan-2-yl}pyridin-2-amine]
22 | < 100 | 100 to 1000 | COc1cccc(F)c1-c1nc2cc(Nc3cccc(N4C[C@@H]5C[C@H]4CN5C)n3)ncc2s1 [Example 80, N-[2-(2-Fluoro-6-methoxyphenyl)-[1,3]thiazolo[5,4-c]pyridin-6-yl]-6-[(1S,4S)-5-methyl-2,5-diazabicyclo[2.2.1]heptan-2-yl]pyridin-2-amine]
23 | < 100 | 100 to 1000 | COc1cccc(F)c1-c1nc2cc(Nc3cccc(N4CCN(C)CC4)n3)ncc2s1 [Example 81, N-[2-(2-Fluoro-6-methoxyphenyl)-[1,3]thiazolo[5,4-c]pyridin-6-yl]-6-(4-methylpiperazin-1-yl)pyridin-2-amine]
24 | < 100 | < 100 | c1cc(Nc2cc3nc(-n4cccn4)sc3cn2)nc(N2C[C@@H]3C[C@H]2CN3)c1 [Example 82, 6-[(1S,4S)-2,5-Diazabicyclo[2.2.1]heptan-2-yl]-N-[2-(1H-pyrazol-1-yl)-[1,3]thiazolo[5,4-c]pyridin-6-yl]pyridin-2-amine]
25 | < 100 | 100 to 1000 | Cc1cccnc1-c1nc2cc(Nc3ccc(F)c(N4C[C@@H]5C[C@H]4CN5)n3)ncc2s1 [Example 83, 6-[(1S,4S)-2,5-Diazabicyclo[2.2.1]heptan-2-yl]-5-fluoro-N-[2-(3-methylpyridin-2-yl)-[1,3]thiazolo[5,4-c]pyridin-6-yl]pyridin-2-amine]
26 | < 100 | 100 to 1000 | Cc1cccnc1-c1nc2cc(Nc3ccc(C)c(N4C[C@@H]5C[C@H]4CN5)n3)ncc2s1 [Example 84, 6-[(1S,4S)-2,5-Diazabicyclo[2.2.1]heptan-2-yl]-5-methyl-N-[2-(3-methylpyridin-2-yl)-[1,3]thiazolo[5,4-c]pyridin-6-yl]pyridin-2-amine]
27 | < 100 | 1000 to 5000 | Cc1cc(-c2nc3cc(Nc4cccc(N5CCNCC5)n4)ncc3s2)ccn1 [Example 85, N-[2-(2-Methylpyridin-4-yl)-[1,3]thiazolo[5,4-c]pyridin-6-yl]-6-(piperazin-1-yl)pyridin-2-amine]
